Results as given in patent publication US9290464B2 (priority 2010, dated 2016).

Assays:
MPTP-induced monkey = test: Parkinson's disease score in MPTP-induced monkey; assay type: in vivo, Macaque monkeys; conditions: 1 mg/kg oral for 4 weeks after MPTP; compared with group given 1 mg/kg rasagiline; FIG. 1
Protocol: Macaque monkeys (n=35, 3 to 4-year-old) were used as an experimental model. The macaque monkeys were divided into three groups, and 0.2 mg/kg of MPTP was administered to each group (once a day, every day, until Parkinson's disease score reaches 8 or for 14 days) via intravenous injection. […] In addition, to confirm the effect of […] as a dopamine agonist, dopamine transporters existing in medial striatum and caudal striatum taken from the MPTP-induced monkey model were subjected to a dopamine transporter binding assay.
The extent of Parkinson's disease was measured by analyzing videotaped behaviors of each group of monkeys, based on four standards: a) range of movement, b) hypokinesia, c) extent of abnormal posture, and d) tremor. A Parkinson's disease score was evaluated by the sum of (4-range of movement)+hypokinesia+extent of abnormal posture+tremor. […] The Parkinson's disease score was measured for 10 minutes every 30 minutes through 2 hours. That is, the maximum value of the highest Parkinson's disease score is 40. Meanwhile, the measurement method performed based on the four standards was as follows, and evaluated scores below represent representative behaviors observed through observation periods: […]

dopamine transporter = test: Dopamine transporter binding assay ([125I]PE2I) on striatum sections of MPTP-induced monkey; assay type: in vivo, Macaque monkeys; conditions: FIG. 2
malonate-induced mouse = test: Striatum damage in malonate-induced mouse (TTC staining); assay type: in vivo, ICR mice; conditions: 5 mg/kg i.p., five times; TTC staining 3 days after malonate; FIGS. 7 and 8
Protocol: 5 ml/kg of equithesin was administered to each mouse via intraperitoneal injection to be anesthetized, two levelers of a stereotactic instrument were set at 0 mm from both external auditory canals, and the skull of the mouse was perforated in the stereotactic instrument. 0.2 mg/ml of ascorbic acid was used as a control, and 2.4 umole/2 of malonate was injected into a lesion group and a compound treatment group 0.5 mm forward (AP) and 1.2 mm sideward from striatum on the right side (bregma) and 3.1 mm downward from dura matter by using a Hamilton syringe (10 μl, 26G needle) at a rate of 1 uL/min. The groups administered with malonate were divided into two groups, and 0.5 ml/kg of excipient (n=12) and 5 mg/kg of CBI (n=14) were respectively administered to the two groups via intraperitoneal injection 2 hours before an operation and administered again 1 hour, 1 day, 2 days and 3 days after the operation, i.e., total five times. Malonate was injected into striatum of the mouse, the mouse was sacrificed after 3 days, and the brain was taken out of the mouse to prepare a section. Thereafter, the section was stained with 2,3,5-triphenyltetrazolium chloride (TTC).

[1] = system: MAO-B-deficient human neuroblastoma SH-SY5Y cells; test: Apoptosis induced by serum starvation in neuroblastoma cells; assay type: cell-based; conditions: serum-free medium, FIG. 9
Protocol: In this embodiment, MAO-B-deficient human neuroblastoma SH-SY5Y cells (Korean Cell Line Bank) were used. Apoptosis of the human neuroblastoma cells was induced by serum starvation. The MAO-B-deficient human neuroblastoma SH-SY5Y cells cultured in a normal medium were distributed into a 6-well plate at a concentration of 1.8×10^5 cells/well and incubated for 1 day, the medium was exchanged with a serum-free medium containing CBI (0.1, 1 and 10), a serum-free medium containing rasagiline (0.1, 1 and 10), or a serum-free medium containing neither CBI or rasagiline, and the cell was further incubated in 5% CO2 at 37° C. for 48 hours.

[2] = system: MAO-B-deficient human neuroblastoma SH-SY5Y cells; test: Transmembrane potential of mitochondria (MitoPT kit) in MPP+-treated cells; assay type: cell-based; conditions: 2 mM MPP+, 24 hours, FIG. 16
Protocol: In this embodiment, MAO-B-deficient human neuroblastoma SH-SY5Y cells (Korean Cell Line Bank) were used. The cells were incubated in a DMEM medium in 5% of CO2 at 37° C. for 24 hours. The cultured cells were divided into five groups, 2 mM of 1-methyl-4-phenyl-pyridium (MPP^+) was added to each group, three of the five groups were respectively treated with 1 nM, 10 nM and 50 nM of CBI, one of the other two groups was treated with 10 nM of rasagiline, and the CBI- or rasagiline-treated four groups were further incubated in 5% of CO2 at 37° C. for 24 hours. The group with only MPP^+ added thereto was incubated under the same conditions as describe dabove. Subsequently, according to manufacturer's protocols, the transmembrane potential of mitochondria was determined using MitoPT™ kit (Immunochemistry Technology). The transmembrane potential of mitochondria was confirmed using a fluorescent plate reader (Tecan, Austria). […] Thus, RFU values (red fluorescence value/green fluorescence value) were determined from the results, and the results are shown in FIG. 16.

catalase = test: Activity of catalase in striatum and substantia nigra of mouse; assay type: in vivo, C57BL/6 mice; conditions: 1 mg/kg oral for 8 days, no neurotoxin, FIG. 22
Protocol: Next day after the last day of administration, striatum and substantia nigra tissues were taken out of each group of mice. Cell extracts were obtained from the cells of the tissues, and thus the activities of the catalase, SOD and GPx were measured.

SMILES: NC(=O)OCc1cc(-c2ccc(OCc3ccccc3)cc2)no1 [CBI, carbamic acid 3-(4-benzyloxy-phenyl)-isoxazole-5-yl methylester]
- extent of Parkinson's disease (Parkinson's disease score) (MPTP-induced monkey): significantly decreased extent of Parkinson's disease
- dopamine transporters in medial striatum and caudal striatum (dopamine transporter; 1 mg/kg oral for 4 weeks after MPTP): a large number of dopamine transporters
- amount of dopamine transporters compared with rasagiline group (dopamine transporter; same amount (1 mg/kg) of rasagiline): significantly larger amount of dopamine transporters
- damaged regions of the striatum induced by malonate (malonate-induced mouse): significantly reducing damaged regions of the striatum
- higher extent of a decrease in the apoptosis of neurons than with 10 of rasagiline ([1]; 10 (unit not given), 48 hours): about 33%
- extent of the apoptosis of neurons ([1]; 48 hours, 0.1, 1 and 10 (unit not given)): decreased
- transmembrane potential of mitochondria ([2]; 1 nM, 10 nM and 50 nM): stabilized concentration-dependently
- stability effect of the transmembrane potential of mitochondria relative to same concentration of rasagiline ([2]; rasagiline 10 nM): no less than 2 times
- increase of the activity of the catalase in the striatum (catalase): about 13%
